Source: patent US5242942A, “Anticonvulsant fructopyranose cyclic sulfites and sulfates” (McNeilab, Inc., priority 1992, dated 1993)

Tests used:
Total Acid Output = assay: pylorus-ligated rat test, gastric antisecretory activity; assay type: in vivo, rat (male Charles River Sprague-Dawley derived); details: PO, read-out: ED50, inhibition of Total Acid Output
Protocol: The gastric antisecretory activity of the compounds shown in Table II was determined by the pylorus-ligated rat test described by Shay et al. in Gastroenterol. 1954, 26, 906. In this method, male Charles River Sprague-Dawley derived rats weighing 150-300 grams were deprived of food but not water for 18-24 hours prior to use. Water was withheld during the experiment, however. The rats were weighed, lightly anesthetized with ether and the pylorus ligated according to the method of Shay et al., supra. The treatment or vehicle control was then administered intraperitoneally (IP) or orally (PO). When administered by the IP route, the administration was done 30 minutes before ligation. When administered by the PO route, the administration was done prior to ligation (about 1/2 to 3 hours before). Rats were housed two per cage and sacrificed with carbon dioxide 3 hours after ligation. Their stomachs were removed, rinsed, and contents emptied into a graduated centrifuge tube. The tubes were centrifuged, the volume of gastric juice was recorded, and any samples obviously contaminated by feces, food or blood were eliminated. A 1 mL aliquot of gastric juice was titrated with 0.1N NaOH to a pH of 7.0-7.4. The volume of gastric juice secreted, the acid concentration, and the product of the volume times the concentration, i.e. the total amount of acid secreted, were measured. The total acid output was calculated by multiplying the volume of gastric juices collected times the hydrogen ion concentration (amount of NaOH added to a sample to reach a pH of 7.0-7.4) and dividing that value by 10. The mean value of the total acid output for a control group of rats was then subtracted from the mean value of the total acid output for the group of rats tested at the same dose. That value was then divided by the mean value of total acid output for the control group and the resulting number was multiplied by 100 to provide a Percent Inhibition value, which values are reported in Table II. The […] was determined statistically as the dose at which a 50% inhibition would be realized.

carbonic anhydrase = carbonic anhydrase inhibition, 18O-exchange mass spectrometry, disrupted hepatocytes; assay type: biochemical; details: 250 μM, disrupted male rat hepatocytes, 37° C., pH 7.4, 25 mM aqueous NaHCO3
Protocol: Compounds of formula (I) are also inhibitors of carbonic anhydrase, and as such, are useful in the treatment of glaucoma. Such activity may be determined by mass spectrometry using the ^18 O-exchange technique described by Dodgson and Forster in J. Appl. Physiol. 1983, 55, 1293. Specifically, this assay was conducted by first killing the male rats and then removing their livers. Their livers were placed in a cold physiological saline solution. The liver tissue was then minced with scissors and shaken in a protolytic enzyme solution to promote disassociation of the hepatocytes. The dissociated hepatocytes were then washed in a cold saline solution and used for determination of carbonic anhydrase activity.
[…] The continuous readout of the mass 44 peak gives a continuous record of the constancy of the pH of the reaction medium since the height of the mass 44 peak is very sensitive to pH. The pH of the medium was read from the pH meter and used to calibrate the mass 44 peaks at regular intervals.
An 8 mL glass chamber, with openings for a pH electrode and sample insertion, was used for continuous mass spectrophotometric measurement of C^16 O^16 O (mass 44) and C^16 O^18 O (mass 46) dissolved in aqueous bicarbonate buffer. […] The pH was constantly monitored by a combination glass pH electrode (Radiometer model gK 2641C). […]

rat diuresis study = assay type: in vivo, rat (male Wistar); details: 6.3 mg/kg PO, average of five animals
Excerpt: Evidence for the inhibition of carbonic anhydrase by compounds of the formula (I) can also be obtained by a diuresis study, such as described by A. Weiner in Goodman and Gilman's The Pharmacological Basis of Therapeutics, 8th ed.; Goodman Gilman, A.; Rall, T. W.; Nies, A. S.; Taylor, P., Eds.; Pergamon Press: New York, 1990; pp 716-718. An increase in urine akalinity accompanied with an increase in water intake and urine output provides an indirect indication of carbonic anhydrase inhibition activity. Male Wistar rats having a weight of 250-300 g were dosed orally (PO) and housed in cages that allowed for the quantitative measure of fluid intake and urine output. Water intake and urine output were measured at 24 hours versus control, whereas urine pH, obtained via pH meter, was measured at 4 and 24 hours versus control. The results of this study, which are the average of five animals, are reported below in Table III. […] Such data is also an indication of the usefulness of the compounds of formula (I) as diuretics in the treatment of hypertension, congestive heart failure and other types of edema. The determination of suitable dosages for such compounds for the treatment of hypertension and congestive heart failure and other types of edema is within the skill of the art.

CC1(C)O[C@H]2[C@@H]3OS(=O)(=O)O[C@@H]3CO[C@@]2(COS(N)(=O)=O)O1 [Example 1, 2,3-O-(1-Methylethylidene)-4,5-O-sulfonyl-β-D-fructopyranose Sulfamate]
ED50 (Total Acid Output): 20 mg/kg | inhibition of all hepatocyte carbonic anhydrase (carbonic anhydrase): Maximal inhibition | Urine pH (rat diuresis study; 4 hours, control 6.98): 8.99 | Urine pH (rat diuresis study; 24 hours, control 6.43): 7.03 | Water Intake (rat diuresis study; 24 hours, control 15.0): 24.0 mL | Urine Output (rat diuresis study; 24 hours, control 17.6): 28.3 mL
